Values quoted from earlier work, collected in US20080200497A1, “Hepatitis C Inhibitor Peptide Analogs” (priority 2005, published 2008).

Test system: hepatitis C virus
Settings: two day clinical trial, patients infected with the hepatitis C virus

COc1ccc2c(O[C@@H]3C[C@H]4C(=O)N[C@]5(C(=O)O)C[C@H]5/C=C\CCCCC[C@H](NC(=O)OC5CCCC5)C(=O)N4C3)cc(-c3csc(NC(C)C)n3)nc2c1 [BILN 2061]
reduction of viral loads: effective in rapidly reducing viral loads
